Common to all, as to format: biochemical
One test has as its target Aβ(1-40) (Homo sapiens, UniProt P05067). In words: BASST (Beta-Amyloid Self-seeding, ThioflavinT), inhibition of self-seeded amyloid fibril growth. The settings on record: 30 µM soluble Aβ (1-40), 37°C, 3 to 5 hours, thioflavin T fluorescence; letter in parentheses = lot of compound (no letter = Lot P); read-out: BASST IC50 (converted). On the set-up: 30 µM soluble Aβ (1-40) in deionized water in assay buffer. On the procedure:
BASST (Beta-Amyloid Self-seeding, ThioflavinT)
An assay for inhibitors of self-seeded amyloid fibril growth
Assay Buffer - 50 mM sodium phosphate, pH 7.5, 100 mM NaCl, 0.02% NaN3, 1 M urea (filter and store at 4°C).
Soluble Aβ (1-40) - 2.2 mg/mL in deionized H2O (store in aliquots at -20°C, keep on ice when thawed) will self-seed after 1 week storage. Typically, the solution should be stored until no lag phase is seen in the assay.
Final assay conditions: 30 µM soluble Aβ (1-40) in deionized water in assay buffer. Compound to be tested is dissolved in DMSO, typically 5-50 mM stock, such that the final concentration of DMSO is <1% v/v in the assay.
Assay: Reaction mixture for 50 assays (on ice) comprised of 1 µL of soluble Aβ (1-40) + 13.5 µL assay buffer per assay. The following are the amounts of the components of the reaction mixture that result in each of the 50 assay wells. 50 µL soluble Aβ (1-40) 675 µL assay buffer
• 1) Prepare the reaction mix above by mixing the components and storing on ice. • 2) Pipet 14.5 µL of reaction mixture into each of 50 wells of a polystyrene U-bottom 96-well microtiter plate (Coming 25881-96) on ice. • 3) Add 1.7 µL of diluted compound to be tested to each well in a column of eight, including solvent control. Serial 3-fold dilutions from 1 mM (100 µM final) in assay buffer -urea = 7 dilutions + zero. Each 96-well plate can therefore accommodate 11 samples + 1 Congo Red control (0.039-5 µM final in 2-fold steps). • 4) Seal the plate with aluminum film and incubate for 10 minutes on ice. • 5) Raise the temperature to 37°C and incubate for 3 to 5 hours (depends on the lot of the peptide). • 6) Remove the aluminum film and add 250 µL/well of 5 µM thioflavin T (ThT) [T-3516, Sigma-Aldrich] in 50 mM glycine-NaOH, pH 8.5. Read fluorescence on a plate reader (ex = 440 nm/20 nm; em = 485 nm/20 nm) within 5 minutes.

The target in a further test is T1, Aβ (1-40) peptide (Homo sapiens, UniProt P05067).
T1 construct: 10 µL 0.5 mg/mL Aβ (1-40) peptide in 20% HFIP
In words: BAPA (Beta-Amyloid Peptide Aggregation, pH 6.0), filtration endpoint assay. The conditions noted are these: Aβ (1-40) 33 µM, pH 6.0, 2 to 4 hours at room temperature; letter in parentheses = lot of compound (no letter = Lot P); read-out: BAPA IC50. On the procedure: BAPA (Beta-Amyloid Peptide Aggregation
This assay is used to provide a measure of inhibition by a compound against the aggregation behavior of the beta amyloid peptide.
The purpose of this assay is to provide a higher volume method of assaying the amount of beta amyloid aggregation using an endpoint assay based on filtration. In this assay, hexafluoroisopropanol (HFIP) is used to break down the initial amyloid peptide to a monomer state and use a concentration of 33 µM which is high enough so that aggregation will occur at pH 6.0 in several hours.
β-Amyloid Peptide Aggregation. pH 6 0 (BAPA)
In a 96-well plate (Costar 3794), we add 25 µL 50 mM Phosphate Buffer, pH 6.0, 10 µL 0.5 mg/mL Aβ (1-40) peptide in 20% HFIP + 0.1 µL/assay radioiodinated ^125I Aβ (1-40) [^125I Aβ(1-40)], and 1 µL of the compound to be tested starting at 50 mM with a concentration of DMSO <1%. Then, we incubate for 2 to 4 hours at room temperature. We stop the reaction with 200 µL of 50 mM phosphate buffer, pH 6.0, and filter it through a 0.2 µm 96-well filter plate (Millipore MAGU N22) We wash the filter plate with 100 µL of the same phosphate buffer. Aggregation was detected on a Microbeta counter after impregnating the filters with Meltilex (1450-441) and is corrected for background

In another test the target is T2, Aβ (1-42) (Homo sapiens, UniProt P05067).
T2 construct: Required Aβ (1-42)(California Peptide) was dried from its hexafluoroisopropanol (HFIP) stock solution; purchased California Peptide
In words: BATYM assay, Aβ (1-42) aggregation, Thioflavin T fluorescence. The conditions noted are these: Aβ 1-42 final concentration 100 µM, 37°C, 1 day, letter in parentheses = lot of compound (no letter = Lot P), read-out: BATYM IC50. On the procedure: Required Aβ (1-42)(California Peptide) was dried from its hexafluoroisopropanol (HFIP) stock solution. The Aβ (1-42) was dissolved in dimethylsulfoxide (DMSO) and then mixed with phosphate buffered saline (PBS) (pH 7.4). The mixed Aβ (1-42) solution was filtered through a […] Omnipore membrane syringe filter (Millipore, Bedford, MA). The compound to be tested in DMSO (50 times concentrate) was put into each well (0.5 µL/well) of a 96-well plate. The Aβ (1-42) solution was added into each well (24.5 µL/well). The plate was centrifuged at 1,000 g for 5 minutes and incubated at 37°C for 1 day (Aβ 1-42; final concentration 100 µM).
After incubation Thioflavin T (ThT) (30 µM) solution in glycine-NaOH buffer (pH 8.5, 50 mM) was added into each well (250 µL/well), fluorescence was measured (ex. 440/20 nm; em 485/20 nm) using a fluorescence plate reader. The inhibitory activity was calculated as the reduction of fluorescence with the following formula: Inhibition (%) = {(F(Aβ)-F(Aβ+compound)}/{F(Aβ)-F (solvent+compound)} × 100 [formula]
The IC50s (concentration of test compound required to cause a 50% inhibition of aggregation) were calculated by a curve fitting program using the following equation. The data were obtained from two different experiments in triplicate. Inhibition (x) = 100-100/{1 + (x/IC50)^n }, [formula] x = concentration of tested compound (M), IC50 = (M), n = Hill coefficient.

Bounds are passed on as bounds.

T1 sequence (P05067 672-711): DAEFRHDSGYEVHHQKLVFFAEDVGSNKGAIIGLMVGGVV
Sequence of Aβ(1-40) (P05067 672-711): as above
T2 sequence (P05067 672-713): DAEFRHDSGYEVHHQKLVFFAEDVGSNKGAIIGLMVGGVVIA

Regarding `COc1cccc(N2Cc3ccc(Nc4ccccc4C(=O)O)cc3C2)c1` [Example 26, 2-[2-(3-Methoxy-phenyl)-2,3-dihydro-1H-isoindol-5-ylamino]-benzoic acid], the results for the IC50 on Aβ(1-40), at Aβ (1-40) peptide and on Aβ (1-42) were 10 µM, more than 60 µM and 64.9 µM, respectively.

Values taken from EP1192131B1, “METHOD OF INHIBITING AMYLOID PROTEIN AGGREGATION AND IMAGING AMYLOID DEPOSITS USING ISOINDOLINE DERIVATIVES” (Warner-Lambert Company LLC, priority 1999, dated 2000).
